Measured values as given in ChEMBL document CHEMBL5537135, “Novel antimicrobial peptides modified with fluorinated sulfono-γ-AA having high stability and targeting multidrug-resistant bacteria infections” (Eur J Med Chem, 2024).
Calls of active or inactive are those of the source. The rule behind the calls is not given here. Numbered stars: 1 amine (or outer) side, 2 acyl side, 3 side chain; on linkers, the order of the positions; unused ones are H or OH. Square brackets hold non-standard residues; d marks the D form. Peptide text beside a SMILES is read from it. * marks the point of attachment. X3 = CC(C)C[C@@H](CN(CC(N)=O)S(=O)(=O)c1ccc(C(F)(F)F)cc1)N*; X2 = CC(C)C[C@H](N)CN(CC(=O)[*:2])[*:1]; X1 = O=S(=O)(c1ccc(C(F)(F)F)cc1)*

Legend:
[1] = tested on: Pseudomonas aeruginosa; test: Additive antibacterial activity against multidrug-resistant Pseudomonas aeruginosa 124 assessed as fractional inhibitory concentration index in presence of ceftazidime by checkerboard assay; type: functional
[2] = Toxicity in mouse assessed as animal survival at 20 mg/kg, ip measured for 7 days; type: organism-based; details: in vivo, 168 h, time 7 day
[3] = tested on: Staphylococcus aureus; test: Additive antibacterial activity against Staphylococcus aureus ATCC 33591 assessed as fractional inhibitory concentration index in presence of polymyxin B by checkerboard assay; type: functional
[4] = tested on: Staphylococcus aureus; test: Antibacterial activity against […] Staphylococcus aureus ATCC 33591; type: functional, organism-based
[5] = tested on: Cell membrane; test: Induction of membrane depolarization in methicillin-resistant Staphylococcus aureus ATCC 33591 assessed as increase in fluorescence intensity by DiSC35 dye-based fluorescence assay; type: cell membranes
[6] = tested on: Staphylococcus aureus; test: Antibacterial activity against methicillin-resistant Staphylococcus aureus ATCC 33591 infected in full-thickness wound BALB/c mouse model assessed as reduction in inflammatory infiltration at 1 mg/kg, ip administered for 1 to 48 hrs and measured after 3 days; type: functional, organism-based; details: time 1-120 hrs
[7] = tested on: Staphylococcus aureus; test: Synergistic antibacterial activity against methicillin-resistant Staphylococcus aureus S5 assessed as fractional inhibitory concentration index in presence of vancomycin by checkerboard assay; type: functional
[8] = tested on: Cell membrane; test: Induction of membrane disruption in Staphylococcus aureus ATCC 33591 assessed as membrane lysis at 2 to 4 times MIC incubated for 24 hrs by SEM analysis; type: cell membranes
[9] = tested on: Pseudomonas aeruginosa; test: Antibacterial activity against Pseudomonas aeruginosa ATCC 27853 infected in C57BL/6 mouse pneumonia model assessed as […] at 2.5 to 10 mg/kg, ip administered for 1 to 48 hrs and measured after 3 days by H and E staining based analysis; type: functional, organism-based; details: dose 2.5-10 mg/kg, time 1-120 hrs
[10] = tested on: Cell membrane; test: Induction of membrane depolarization in Pseudomonas aeruginosa ATCC 27853 assessed as increase in fluorescence intensity by DiSC35 dye-based fluorescence assay; type: cell membranes
[11] = tested on: Pseudomonas aeruginosa; test: Antibacterial activity against Pseudomonas aeruginosa ATCC 27853 infected in C57BL/6 mouse pneumonia model assessed as decrease in IL-6 level in lung at 2.5 to 10 mg/kg, ip administered for 1 to 48 hrs and measured after 3 days; type: functional, organism-based; details: dose 2.5-10 mg/kg, time 1-120 hrs
[12] = tested on: Pseudomonas aeruginosa; test: Antibacterial activity against Pseudomonas aeruginosa ATCC 27853 infected in C57BL/6 mouse pneumonia model assessed as log reduction in bacterial load in lung at 5 mg/kg, ip administered for 1 to 48 hrs and measured after 3 days; type: functional; details: time 1-120 hrs
[13] = tested on: Pseudomonas aeruginosa; test: Bactericidal activity against Pseudomonas aeruginosa ATCC 27853 assessed as reduction in viable bacteria at 4 times MIC measured for 1 min by time-kill assay; type: functional, organism-based
[14] = tested on: Pseudomonas aeruginosa; test: Additive antibacterial activity against multidrug-resistant Pseudomonas aeruginosa 124 assessed as fractional inhibitory concentration index in presence of polymyxin B by checkerboard assay; type: functional
[15] = tested on: Cell membrane; test: Induction of membrane disruption in Pseudomonas aeruginosa ATCC 27853 assessed as membrane blebbing at 2 to 4 times MIC incubated for 24 hrs by SEM analysis; type: cell membranes
[16] = Toxicity in mouse assessed as kidney lesion at 20 mg/kg, ip measured for 30 to 60 mins by H and E staining based analysis; type: organism-based; details: in vivo, time 30-60 min
[17] = Toxicity in mouse assessed as liver lesion at 20 mg/kg, ip measured for 30 to 60 mins by H and E staining based analysis; type: organism-based; details: in vivo, time 30-60 min
[18] = Toxicity in mouse assessed as skin injury at 40 mg/kg, sc measured for 5 to 1440 mins by H and E staining analysis; type: organism-based; details: in vivo, time 5-1440 min
[19] = Toxicity in mouse at 40 mg/kg, sc measured for 5 to 1440 mins; type: organism-based; details: in vivo, time 5-1440 min
[20] = tested on: Staphylococcus aureus; test: Synergistic antibacterial activity against methicillin-resistant Staphylococcus aureus S5 assessed as fractional inhibitory concentration index in presence of polymyxin B by checkerboard assay; type: functional
[21] = tested on: Pseudomonas aeruginosa; test: Synergistic antibacterial activity against multidrug-resistant Pseudomonas aeruginosa 124 assessed as fractional inhibitory concentration index in presence of polymyxin B by checkerboard assay; type: functional
[22] = tested on: Staphylococcus aureus; test: Synergistic antibacterial activity against Staphylococcus aureus ATCC 33591 assessed as fractional inhibitory concentration index in presence of polymyxin B by checkerboard assay; type: functional
[23] = tested on: Cell membrane; test: Induction of cytoplasmic membrane depolarization in methicillin-resistant Staphylococcus aureus ATCC 33591 assessed as increase in fluorescence intensity at 2 times MIC by DiSC35 dye-based fluorescence assay

## CC(C)C[C@H](N)CN(CC(=O)N[C@@H](CCCCN)C(=O)N[C@@H](CC(C)C)C(=O)N[C@@H](CC(C)C)C(=O)N[C@@H](CCCCN)C(=O)N[C@@H](CCCCN)C(=O)N[C@@H](CC(C)C)C(=O)N[C@@H](CC(C)C)C(N)=O)S(=O)(=O)c1ccc(C(F)(F)F)cc1 (X1-[X2]KLLKKLL-NH2)
[1]
  fractional inhibitory concentration index (FICI): 1
[2]
  Activity: Non-Toxic
[3]
  fractional inhibitory concentration index (FICI): 1
[4]
  Activity: Active
[5]
  Activity: Dose-Dependent Effect
[6]
  Activity: Active
[7]
  fractional inhibitory concentration index (FICI): 2
[8]
  Activity: Active
[9]
  Activity: Active
[10]
  Activity: Dose-Dependent Effect
[11]
  Activity: Active
[12]
  log(activity): 4.51
[13]
  Activity: Active
[14]
  fractional inhibitory concentration index (FICI): 0.5
[15]
  Activity: Active
[16]
  Activity: Non-Toxic
[17]
  Activity: Non-Toxic
[18]
  Activity: Non-Toxic
[19]
  Activity: Non-Toxic

## CC(C)C[C@@H](CN(CC(N)=O)S(=O)(=O)c1ccc(C(F)(F)F)cc1)NC(=O)[C@H](CCCCN)NC(=O)[C@H](CCCCN)NC(=O)[C@H](CC(C)C)NC(=O)[C@H](CC(C)C)NC(=O)[C@H](CCCCN)NC(=O)[C@H](CC(C)C)NC(=O)[C@@H](N)Cc1ccccc1 (H-FLKLLKK-X3)
[20]
  fractional inhibitory concentration index (FICI): 0.75
[21]
  fractional inhibitory concentration index (FICI): 0.75
[22]
  fractional inhibitory concentration index (FICI): 0.5
[23]
  Activity: Active
